# Test results taken from US20200023018A1, “MODULATION OF GUT MICROBIOTA IN HUNTINGTON'S DISEASE AND RETT SYNDROME” (priority 2017, published 2020).
# “Also recorded” adds a separate entry of the source.
# How the values were obtained:
# humans = details: cited from earlier work
# Rett mice [1] = assay: Learning and memory of Rett mice (novel object recognition, Barnes Maze); type: in vivo; details: rifaximin-treated Rett mice; expected
# Description: GF WT and Rett mice are also tested for these behaviors the results are compared with the rifaxitnin-treated cohorts.
# We previously used this test in an environmental mouse model of autism (Hsiao et al., 2013). Rodents in general spend more time exploring a novel object than a familiar one. The ability to choose the novel object is indicative of learning and recognition memory. The novel object recognition task is conducted in an open field arena with two different kinds of objects. Both objects are generally consistent in height and volume, but are different in shape and appearance. During habituation, the animals are allowed to explore an empty arena. […] The time spent exploring each object and the discrimination index percentage are recorded. This test is used, among other experiments, to assess the cognitive ability of vehicle- and rifaximin-treated Rett mice as well as GF cohorts and quantify and compare the results.
# In this test mice learn the position of a hole to escape the brightly lit open surface of the maze. […] Rett mice as well as GF cohorts and quantify and compare the results. For data acquisition the amount of time required for the animal to locate the goal box using visuo-spatial cues surrounding the maze periphery are measured. The number of errors the mice make are recorded to find the escape hole. […]
# Rett mice [2] = assay: Whole body plethysmography in Rett mice; type: in vivo; details: predicted
# Text: Whole body plethysmography are used to measure breathing irregularities in Rett mice. This phenotype is common in Rett patients (Lombardi et al., 2015). An accumulating body of literature supports the potential importance of vagus nerve in the regulation of breathing. We predict that intestinal dysbiosis in Rett impairs the vagus nerve activity and exacerbate the breathing abnormalities. […] The Buxco Fine Pointe Unrestrained Whole Body Plethysmograph system from Data Sciences International (DSI; St. Paul, Minn.) are used for these measurements.
# Rett mice [3] = assay: Staining of brain sections of Rett mice for astrocyte and microglial markers; type: in vivo
# Text: FIG. 15A depicts staining with markers of activated astrocyte GFAP (center column) and GS (right column); Overlay of GFAP and GS is shown in left column. […] The Iba-1 and CD11 generally colocalized throughout the hippocampal region, but Iba-1 was expressed at higher levels in the vehicle-treated group (see, e.g, arrow), and lower levels in the rifaximin-treated group.
# The finding can be re-confirmed and quantified for statistical analysis. Elevation of GFAP and GS is linked to astrocytes activation and inflammation. Astrocytes are recognized as therapeutic targets for neuroinflammation, neurodegeneration, and neuropsychiatric disorders. Subsets of gut microbes produce molecules, which reach the CNS, lower astrocytes activation, and subsequently reduce the production of inflammatory cytokines (Rothhamrner et al., 2016). Gut bacteria also greatly influence the development of microglia, which are the CNS immune cells (Erny et al., 2015).
# For example, animals can be gavaged with known amounts of rifaximin to ensure equal delivery.
# Rett mice [4] = assay: Semi-quantitative PCR of gut bacteria in Rett mice; type: in vivo
# Text: FIG. 7 is an image depicting the results of semi-quantitative PCR of Rett mice of some embodiments. […] Top panels are Eubacteria amplification used as a positive control.
# FIG. 19 is an image showing the results of semi-quantitative PCR in WT and Rett mice in accordance with some embodiments herein.
# Less is known about the role of Tenericutes in human health. In animals however, the presence of Tenericutes correlates with digestion of crude fiber (Niu et al., 2015).
# Rett mice [5] = assay: Neurogenesis in Rett mice (doublecortin and ki67 staining); type: in vivo
# Text: FIGS. 18A-C are a series of graphs and images depicting effects of microbiota on neurogenesis in Rett mice in accordance with some embodiments herein. FIG. 18A is a series of images depicting doublecortin staining of bilateral hippocampus in vehicle-treated (top panels) and rifaximin-treated Rett mice (bottm panels). FIG. 18B is a graph showing quantification of doublecortin positive cells in the dentate gyrus of bilateral hippocampi (2 layers) from 4 vehicle-treated and 6 rifaximin-treated animals, FIG. 18C is a series of images showing ki67 positive cells (arrows) in the SVZ (subventricular zone) of vehicle (top) and rifaximin-treated Rett mice. Boxed areas highlight regions with dramatic changes (considerably more ki67-positive cells are observed in the rifaximin-treated mose). NeuN staining for neurons (NeuN) is observed as bright foci throughout.
# Drosophila model of HD = assay: Aggregation of mHDx1 in a Drosophila model of HD (immunohistochemistry, Western blot); type: in vivo
# Text: FIG. IB is an image of a Western blot (WB) of different batch pooled larvae examined for MHDx1 aggregation. FIG. 1C is a series of images depicting immunohistochemistry similar to FIG. 1A except that adult flies were used in FIG. 1C. FIG. 1D depicts a WB similar to FIG. 1B, except that adult flies were used in FIG. 1D. The Gal4 induction system with mHDx1 (120Q) downstream of UAS (upstream activation sequence) and the gal4 transactivator downstream of Drosophila neuronal-specific promoter Elav was used to induce the expression of mHDx1 in the nervous system of offspring. In FIG. 1C, the central brain region is shown.
# Without being limited by theory, it is contemplated that intestinal microbiota contributes to the aggregation of mutant HTT in the enteric nervous stem (ENS). In a Drosophila model of HD (Barbaro et al., 2015), inducing the expression of a mutant HTT exon-1 fragment (mHDx1) in the nervous system promoted aggregation in the ENS of larvae in the vicinity of the gut (FIGS. 1A and 1B). The initial appearance of aggregates in the larval ENS is thus observed.
# Accordingly, it is observed herein that treatment with an antibiotic in accordance with some embodiments herein decreases aggregates of mutant Huntingtin protein.
# Rett mice [6] = assay: GI pathology and metabolic changes in Rett mice; type: in vivo
# Description: In FIG. 14A, each point represents a mouse. N=6 each in FIG. 14C. […] N=6 for FIGS. 14E and 14F.
# It was examined whether eliminating the intestinal microbiota of Rett mice alters GI pathology.
# Rett mice [7] = assay: Behaviors of Rett mice (nest building, climbing, wire-mesh hanging, clasping); type: in vivo
# Description: FIG. 58 is a graph depicting that rifaximin-treated mice make more attempts at climbing a wired-mesh cylinder within a 2 min time allowed. FIG. 5C is a graph depicting that testing muscle strength by wired mesh hanging assay. […] N=6. Scoring and procedures were as described in Southwell et al., 2009.
# N=6. Scoring and procedures were as described in Southwell et al., 2009.
# Nest building is indicative of rodents' well-being, daily activity, positive motivational state, and healthy brain functions (Jirkof, 2014).
# Nest building is indicative of rodents' wellbeing, daily activity, positive motivational state, and healthy brain functions (Jirkof, 2014). […] This is consistent with the improved mobility in Rett mice observed herein. The data herein can be confirmed with additional behavioral tests, including rotarod, beam crossing, and open field. These studies can confirm benefits of rifaximin therapy on the CNS pathology and/or aberrant behaviors in Rett syndrome.
# This is based on observations that male mice start displaying symptoms when they are ˜10 weeks old.
# Hind limb clasping is a marker of disease progression in Rett syndrome and other diseases with motor defects. In this assay animals were suspended by the tail ˜30 cm above the tabletop for 1 min and recorded with a video camera. No clasping is scored as 0, periodic clasping and extension is scored as 1, and full hind limb clasping was scored with occasional extension is scored as 2. Severe clasping is scored as 3.
# human microbiota = details: cited from earlier work
# [8] = system: Parkinson's disease patients; details: pilot study; cited from earlier work
# [9] = system: Hepatic Encephalopathy (HE) patients; details: clinical studies; cited from earlier work
# [10] = brain sections from the cortical regions, some of the treated Rett mice, compared to vehicle
# [11] = Rett mice treated after weaning for 6 weeks
structure (smiles),measurement,setting,value
CO[C@H]1/C=C/O[C@@]2(C)Oc3c(C)c(O)c4c(O)c(c5c(nc6cc(C)ccn65)c4c3C2=O)NC(=O)/C(C)=C\C=C\[C@H](C)[C@H](O)[C@@H](C)[C@@H](O)[C@@H](C)[C@H](OC(C)=O)[C@@H]1C [rifaximin],safety and tolerability,humans,safe and well tolerated
same,learning and memory,Rett mice [1],learning and memory are improved
same,breathing defects,Rett mice [2],ameliorate some of the breathing defects
same,staining for glial fibrillary acidic protein (GFAP),Rett mice [3]; [10],reduced staining
same,staining for glutamine synthetase (GS),Rett mice [3]; [10],reduced staining
same,numbers of microglia (microglial biomarkers),"Rett mice [3]; brain sections of Rett mice, some of the treated animals",numbers were reduced
same,Iba-1 expression,"Rett mice [3]; hippocampal region of Rett mice, versus vehicle-treated group",lower levels
same,abundance of Bifidobacteria in the GI tract,Rett mice [4],did not increase
same,abundance of the phylum Tenericutes,Rett mice [4],increased abundance
same,hippocampal neurogenesis,"Rett mice [5]; compared to vehicle, doublecortin staining",enhanced
same,dendritic arborization,"Rett mice [5]; compared to vehicle, hippocampus",enhanced
same,proliferation of cells in the subventricular zone (SVZ),Rett mice [5]; ki67,Enhanced proliferation
same,aggregation of mHDx1 in larvae,Drosophila model of HD; Drosophila HD larvae generated in the presence of rifaximin,lowers the aggregation of mHDx1
same,aggregation of mHDx1 in the CNS of adult flies,Drosophila model of HD; adult HD flies,reduces the aggregation of mHDx1
same,GI and metabolic symptoms of Rett mice,Rett mice [6]; Rett mice,eliminated the GI and metabolic symptoms
same,inflammatory appearance of the GI tract,Rett mice [6]; Rett mice,reduces the inflammatory appearance of the GI tract
same,colon length,Rett mice [6]; [11],selectively elongates the colon
same,intestinal obesity,Rett mice [6]; [11],prevents intestinal obesity
same,accumulation of abdominal fat,Rett mice [6]; female Rett mice,prevented
same,weight gain,Rett mice [6]; female Rett mice,prevented
same,activity in the cage environment,Rett mice [7],more active
same,hind limb clasping phenotype,Rett mice [7],significantly reduced clasping phenotype
same,nest building,Rett mice [7],build better nests
same,wire-mesh hanging assay (muscle strength),Rett mice [7],perform better; also recorded: enhanced muscle strength
same,climbing a wire-meshed cylinder,Rett mice [7]; 2 min time allowed,perform better; also recorded: make more attempts to climb
same,proliferation of probiotic species including Bifidobacteria,human microbiota,promotes the proliferation
same,motor functions,[8],improved motor functions
same,bacterial load,[9],decreases bacterial load
same,leaky gut,[9],corrects leaky gut
same,"severity of aberrant behaviors (anxiety, irritability, depression, motor symptoms, cognitive impairment)",[9],reduces the severity of several aberrant behaviors
